From publication PMC10035951, “Selenium-analogs based on natural sources as cancer-associated carbonic anhydrase isoforms IX and XII inhibitors” (Journal of Enzyme Inhibition and Medicinal Chemistry, 2023) come the findings set out here.

For one assay, the target named is T1, hCA I (Homo sapiens, UniProt P00915).
T1 construct: made in house
The experiment in a line: CA catalysed CO2 hydration, stopped-flow inhibition. Format: biochemical. To be noted: recombinant hCA I, stopped-flow CO2 hydration, 15 min preincubation; read-out: Ki hCA I. As to the method:
(§1) The uncatalyzed rates were determined in the same manner and subtracted from the total observed rates. Stock solutions of inhibitor (0.1 mM) were prepared in distilled − deionized water and dilutions up to 0.01 nM were done thereafter with the assay buffer. Inhibitor and enzyme solutions were preincubated together for 15 min at room temperature before assay to allow for the formation of the E − I complex. The inhibition constants were obtained by nonlinear least-squares methods using PRISM 3 and the Cheng − Prusoff equation, as reported earlier,[39]^,[40] and represent the mean from at least three different determinations. […] All human CA (hCA) isoforms were recombinant ones obtained in-house as reported earlier.[41]^,[42]

For another assay, the target named is T2, hCA II (Homo sapiens, UniProt P00918).
T2 construct: made in house
The description is as above. It counts as biochemical. To be noted: recombinant hCA II, stopped-flow CO2 hydration, 15 min preincubation; read-out: Ki hCA II. How it is done:
as §1

The next assay addresses T3, hCA IX (Homo sapiens, UniProt Q16790).
T3 construct: made in house
Described as above. It counts as biochemical. To be noted: recombinant hCA IX, stopped-flow CO2 hydration, 15 min preincubation. How it is done: as §1

A further assay concerns the target T4, hCA XII (Homo sapiens, UniProt O43570).
T4 construct: made in house
Described as above. It counts as biochemical. To be noted: recombinant hCA XII, stopped-flow CO2 hydration, 15 min preincubation; read-out: Ki hCA XII. How it is done:
An Applied Photophysics stopped-flow instrument has been used for assaying the CA catalysed CO2 hydration activity.[38] Phenol red (at a concentration of 0.2 mM) has been used as an indicator, working at the absorbance maximum of 557 nm, with 20 mM Hepes (pH 7.5) as a buffer and 20 mM Na2SO4 (for maintaining constant the ionic strength), following the initial rates of the CA-catalysed CO2 hydration reaction for a period of 10–100 s. The CO2 concentrations ranged from 1.7 to 17 mM for the determination of the kinetic parameters and inhibition constants. […]. The uncatalyzed rates were determined in the same manner and subtracted from the total observed rates. Stock solutions of inhibitor (0.1 mM) were prepared in distilled − deionized water and dilutions up to 0.01 nM were done thereafter with the assay buffer. Inhibitor and enzyme solutions were preincubated together for 15 min at room temperature before assay to allow for the formation of the E − I complex. The inhibition constants were obtained by nonlinear least-squares methods using PRISM 3 and the Cheng − Prusoff equation, as reported earlier,[39]^,[40] and represent the mean from at least three different determinations. The enzyme concentrations were in the range 3–11 nM. All human CA (hCA) isoforms were recombinant ones obtained in-house as reported earlier.[41]^,[42]

In assay [1] the test system is hCA isoforms I, II, VA, IX, and XII. The experiment in a line: CA inhibition, summary statements over all tested isoforms. It counts as biochemical, human. To be noted: from the Ki values of Table 1. As to the method:
An Applied Photophysics stopped-flow instrument has been used for assaying the CA catalysed CO2 hydration activity.[38] Phenol red (at a concentration of 0.2 mM) has been used as an indicator, working at the absorbance maximum of 557 nm, with 20 mM Hepes (pH 7.5) as a buffer and 20 mM Na2SO4 (for maintaining constant the ionic strength), following the initial rates of the CA-catalysed CO2 hydration reaction for a period of 10–100 s. The CO2 concentrations ranged from 1.7 to 17 mM for the determination of the kinetic parameters and inhibition constants. For each inhibitor, at least six traces of the initial 5 − 10% of the reaction have been used for determining the initial velocity. The uncatalyzed rates were determined in the same manner and subtracted from the total observed rates. Stock solutions of inhibitor (0.1 mM) were prepared in distilled − deionized water and dilutions up to 0.01 nM were done thereafter with the assay buffer. Inhibitor and enzyme solutions were preincubated together for 15 min at room temperature before assay to allow for the formation of the E − I complex. The inhibition constants were obtained by nonlinear least-squares methods using PRISM 3 and the Cheng − Prusoff equation, as reported earlier,[39]^,[40] and represent the mean from at least three different determinations. The enzyme concentrations were in the range 3–11 nM. All human CA (hCA) isoforms were recombinant ones obtained in-house as reported earlier.[41]^,[42]

T4 sequence (O43570 25-354): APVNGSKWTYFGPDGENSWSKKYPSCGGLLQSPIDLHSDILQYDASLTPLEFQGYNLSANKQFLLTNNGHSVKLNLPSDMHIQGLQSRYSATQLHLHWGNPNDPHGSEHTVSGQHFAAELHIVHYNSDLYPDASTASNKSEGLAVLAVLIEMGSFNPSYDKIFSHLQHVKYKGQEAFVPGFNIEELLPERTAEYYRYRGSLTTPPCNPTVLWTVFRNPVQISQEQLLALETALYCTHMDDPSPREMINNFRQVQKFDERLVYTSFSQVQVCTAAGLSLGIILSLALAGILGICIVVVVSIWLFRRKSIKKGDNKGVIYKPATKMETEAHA
T1 sequence (P00915 whole entry): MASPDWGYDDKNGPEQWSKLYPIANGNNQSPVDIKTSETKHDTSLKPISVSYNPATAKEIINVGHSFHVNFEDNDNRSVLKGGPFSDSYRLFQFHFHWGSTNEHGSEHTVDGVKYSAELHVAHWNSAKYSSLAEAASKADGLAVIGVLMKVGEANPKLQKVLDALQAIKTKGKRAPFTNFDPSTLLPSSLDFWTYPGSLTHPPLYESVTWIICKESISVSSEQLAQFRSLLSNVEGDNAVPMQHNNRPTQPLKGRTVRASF

The Ki is the equilibrium dissociation constant of an inhibitor or competing ligand from its target. In the case of `C#CC[Se]C(=O)c1ccccc1Nc1cccc(C(F)(F)F)c1` [Compound 19b], the Ki on hCA I was greater than 100 µM; on hCA II it was greater than 100 µM; on hCA IX, 9.5 µM; at hCA XII, greater than 100 µM. Also, in assay [1], the “isoform selectivity (in words)” value is on record as “selectivity for tumour-associated isoform IX”.
